ChEMBL document CHEMBL3885861, “Open TG-GATES”

Species on record: Rattus norvegicus
Experiment: Open TG-GATES - Regimen: Single
Assay type: toxicity, organism-based, Sprague-Dawley
Parameters: regimen Single, gender Male, age 6 weeks
Settings: in vivo, po, route gavage; for Bas / Eos / Fbg / Lym / Mono / RBC / Ret / WBC: tissue Blood; for KIDNEY_L / KIDNEY_R / KIDNEY_TOTAL: tissue Kidney
[1] = 60 mg/kg, 3 h, dose level Middle
[2] = 60 mg/kg, 3 h, tissue Plasma, dose level Middle
[3] = 60 mg/kg, 6 h, dose level Middle
[4] = 60 mg/kg, 6 h, tissue Plasma, dose level Middle
[5] = 60 mg/kg, 9 h, dose level Middle
[6] = 60 mg/kg, 9 h, tissue Plasma, dose level Middle
[7] = 60 mg/kg, 24 h, dose level Middle
[8] = 60 mg/kg, 24 h, tissue Plasma, dose level Middle
[9] = 200 mg/kg, 3 h, dose level High
[10] = 200 mg/kg, 3 h, tissue Plasma, dose level High
[11] = 200 mg/kg, 6 h, dose level High
[12] = 200 mg/kg, 6 h, tissue Plasma, dose level High
[13] = 200 mg/kg, 9 h, dose level High
[14] = 200 mg/kg, 9 h, tissue Plasma, dose level High
[15] = 200 mg/kg, 24 h, dose level High
[16] = 200 mg/kg, 24 h, tissue Plasma, dose level High

`C=C[C@H]1C[N@@]2CC[C@H]1C[C@@H]2[C@@H](O)c1ccnc2ccc(OC)cc12` [QUINIDINE] gave a Bas [1] of 0%, an Eos [1] of 0.4% and a Fbg [1] of 295 mg/dL. For the same compound, the Lym [1] was 73.2%, the Mono [1] was 2.6% and the RBC [1] was 588 x10_4/ul. For the same compound, the Ret [1] was 7.6%, the WBC [1] was 87.1 x10_2/uL and the KIDNEY_L [1] was 1 g. It also gave a KIDNEY_R [1] of 1 g, a KIDNEY_TOTAL [1] of 2 g and an ALP [2] of 1472.8 IU/L. It also gave a CRE [2] of 0.2 mg/dL, a DBIL [2] of 0.002 mg/dL and an IP [2] of 9.1 mg/dL. For the same compound, the K [2] was 4 meq/L, the LDH [2] was 131.2 IU/L and the Na [2] was 140.6 meq/L. For the same compound, the PL [2] was 148.2 mg/dL, the RALB [2] was 2.9 g/dL and the TBIL [2] was 0.026 mg/dL. For the same compound, the TG [2] was 56.2 mg/dL, the TP [2] was 5.2 g/dL and the gamma-GTP [2] was 2.2 IU/L. It also gave a TERMINAL_BW [3] of 218.5 g, a Bas [3] of 0% and an Eos [3] of 0.8%. For the same compound, the Fbg [3] was 301.2 mg/dL, the Lym [3] was 79.8% and the Mono [3] was 2.2%. The RBC [3] was 623.4 x10_4/ul, the Ret [3] was 6.6% and the WBC [3] was 77.2 x10_2/uL. The KIDNEY_L [3] was 1 g, the KIDNEY_R [3] was 1 g and the KIDNEY_TOTAL [3] was 2 g. The ALP [4] was 1426.2 IU/L, the CRE [4] was 0.2 mg/dL and the DBIL [4] was 0.002 mg/dL. The IP [4] was 9.1 mg/dL, the K [4] was 4.3 meq/L and the LDH [4] was 136.2 IU/L. It also gave a Na [4] of 142.6 meq/L, a PL [4] of 149.4 mg/dL and an RALB [4] of 3 g/dL. It also gave a TBIL [4] of 0.022 mg/dL, a TG [4] of 83.2 mg/dL and a TP [4] of 5.3 g/dL. For the same compound, the gamma-GTP [4] was 1.4 IU/L, the TERMINAL_BW [5] was 207.3 g and the Bas [5] was 0%. The Eos [5] was 0.8%, the Fbg [5] was 300 mg/dL and the Lym [5] was 77%. For the same compound, the Mono [5] was 1.6%, the RBC [5] was 622.8 x10_4/ul and the Ret [5] was 6.8%. For the same compound, the WBC [5] was 59.2 x10_2/uL, the KIDNEY_L [5] was 1 g and the KIDNEY_R [5] was 1 g. The KIDNEY_TOTAL [5] was 2 g, the ALP [6] was 1460.8 IU/L and the CRE [6] was 0.2 mg/dL. It also gave a DBIL [6] of 0.002 mg/dL, an IP [6] of 9.6 mg/dL and a K [6] of 4.4 meq/L. It also gave an LDH [6] of 141.8 IU/L, a Na [6] of 143.8 meq/L and a PL [6] of 139.8 mg/dL. The RALB [6] was 3 g/dL, the TBIL [6] was 0.024 mg/dL and the TG [6] was 74 mg/dL. For the same compound, the TP [6] was 5.4 g/dL, the gamma-GTP [6] was 1 IU/L and the TERMINAL_BW [7] was 225.2 g. The Bas [7] was 0%, the Eos [7] was 0.8% and the Fbg [7] was 337.8 mg/dL. For the same compound, the Lym [7] was 72.4%, the Mono [7] was 3.4% and the RBC [7] was 650.2 x10_4/ul. The Ret [7] was 6.9%, the WBC [7] was 95.3 x10_2/uL and the KIDNEY_L [7] was 1 g. For the same compound, the KIDNEY_R [7] was 1 g, the KIDNEY_TOTAL [7] was 2 g and the ALP [8] was 1697 IU/L. It also gave a CRE [8] of 0.1 mg/dL, a DBIL [8] of 0 mg/dL and an IP [8] of 8.1 mg/dL. The K [8] was 4.1 meq/L, the LDH [8] was 181.4 IU/L and the Na [8] was 141 meq/L. The RALB [8] was 3 g/dL, the TBIL [8] was 0.014 mg/dL and the TP [8] was 5.6 g/dL. It also gave a gamma-GTP [8] of 1.4 IU/L, a TERMINAL_BW [9] of 218.1 g and a Bas [9] of 0%. For the same compound, the Eos [9] was 0.8%, the Fbg [9] was 267 mg/dL and the Lym [9] was 76.2%. The Mono [9] was 2.2%, the RBC [9] was 571.6 x10_4/ul and the Ret [9] was 6.9%. For the same compound, the WBC [9] was 60.8 x10_2/uL, the KIDNEY_L [9] was 1 g and the KIDNEY_R [9] was 1 g. The KIDNEY_TOTAL [9] was 2 g, the ALP [10] was 1429.4 IU/L and the CRE [10] was 0.2 mg/dL. For the same compound, the DBIL [10] was 0.002 mg/dL, the GLC [10] was 172 mg/dL and the IP [10] was 9.1 mg/dL. It also gave a K [10] of 4 meq/L, an LDH [10] of 121 IU/L and a Na [10] of 140.6 meq/L. It also gave a PL [10] of 126.8 mg/dL, an RALB [10] of 2.9 g/dL and a TBIL [10] of 0.02 mg/dL. For the same compound, the TC [10] was 66.2 mg/dL, the TG [10] was 46.8 mg/dL and the TP [10] was 5.1 g/dL. It also gave a gamma-GTP [10] of 1.4 IU/L, a TERMINAL_BW [11] of 221.5 g and a Bas [11] of 0%. For the same compound, the Eos [11] was 0.8%, the Fbg [11] was 318.2 mg/dL and the Lym [11] was 76.4%. For the same compound, the Mono [11] was 2.2%, the RBC [11] was 584.8 x10_4/ul and the Ret [11] was 7.5%. It also gave a WBC [11] of 76 x10_2/uL, a KIDNEY_L [11] of 1 g and a KIDNEY_R [11] of 1 g. For the same compound, the KIDNEY_TOTAL [11] was 2 g, the ALP [12] was 1392.8 IU/L and the CRE [12] was 0.2 mg/dL. The DBIL [12] was 0.004 mg/dL, the IP [12] was 8.7 mg/dL and the K [12] was 4.3 meq/L. For the same compound, the LDH [12] was 181.8 IU/L, the Na [12] was 142 meq/L and the RALB [12] was 3 g/dL. The TBIL [12] was 0.024 mg/dL, the TC [12] was 86.4 mg/dL and the TG [12] was 55.4 mg/dL. The TP [12] was 5.4 g/dL, the gamma-GTP [12] was 1.2 IU/L and the TERMINAL_BW [13] was 218.2 g. It also gave a Bas [13] of 0%, an Eos [13] of 0.8% and a Fbg [13] of 309.8 mg/dL. For the same compound, the Lym [13] was 74%, the Mono [13] was 1.6% and the RBC [13] was 591 x10_4/ul. For the same compound, the Ret [13] was 6.5%, the WBC [13] was 63.2 x10_2/uL and the KIDNEY_L [13] was 1 g. For the same compound, the KIDNEY_R [13] was 1 g, the KIDNEY_TOTAL [13] was 2 g and the ALP [14] was 1558.2 IU/L. The CRE [14] was 0.1 mg/dL, the DBIL [14] was 0.004 mg/dL and the IP [14] was 8.9 mg/dL. For the same compound, the K [14] was 4.4 meq/L, the LDH [14] was 118.4 IU/L and the Na [14] was 142.6 meq/L. It also gave a PL [14] of 148.2 mg/dL, an RALB [14] of 3 g/dL and a TBIL [14] of 0.028 mg/dL. It also gave a TG [14] of 71.6 mg/dL, a TP [14] of 5.4 g/dL and a gamma-GTP [14] of 1.2 IU/L. The TERMINAL_BW [15] was 231.5 g, the Bas [15] was 0% and the Eos [15] was 0.8%. It also gave a Fbg [15] of 319.6 mg/dL, a Lym [15] of 74.8% and a Mono [15] of 3%. It also gave an RBC [15] of 633.6 x10_4/ul, a Ret [15] of 7.1% and a WBC [15] of 84.6 x10_2/uL. The KIDNEY_L [15] was 1 g, the KIDNEY_R [15] was 1.1 g and the KIDNEY_TOTAL [15] was 2.1 g. It also gave an ALP [16] of 1496.4 IU/L, a CRE [16] of 0.1 mg/dL and a DBIL [16] of 0.002 mg/dL. It also gave an IP [16] of 9.1 mg/dL, a K [16] of 4.1 meq/L and an LDH [16] of 144.2 IU/L. It also gave a Na [16] of 141 meq/L, a PL [16] of 146.8 mg/dL and an RALB [16] of 3 g/dL. For the same compound, the TBIL [16] was 0.01 mg/dL, the TP [16] was 5.6 g/dL and the gamma-GTP [16] was 1.6 IU/L.
